Source: US12233045B2, “Therapeutic agent for treating bradyarrhythmia” (OSAKA UNIVERSITY, priority 2018, dated 2025)
Substitutions are numbered along the chain they refer to.

Legend:
KCNJ3 N83H KACh channel = target: T1, KCNJ3 N83H KACh channel (Homo sapiens, UniProt P48544+P48549, N83H); assay: two-electrode voltage clamp, KACh channel expressed in Xenopus laevis oocytes (N83H mutant); format: cell-based; conditions: for inhibition of the N83H mutant compared with the WT KACh channel: N83H vs WT; for inhibitory effect on the KCNJ3 N83H KACh channel: two-electrode voltage clamp
T1 construct: expressed in transfected cells; host or cells: Xenopus laevis oocytes (cRNA injection)
T1 sequence (P48549 1-501 N83H): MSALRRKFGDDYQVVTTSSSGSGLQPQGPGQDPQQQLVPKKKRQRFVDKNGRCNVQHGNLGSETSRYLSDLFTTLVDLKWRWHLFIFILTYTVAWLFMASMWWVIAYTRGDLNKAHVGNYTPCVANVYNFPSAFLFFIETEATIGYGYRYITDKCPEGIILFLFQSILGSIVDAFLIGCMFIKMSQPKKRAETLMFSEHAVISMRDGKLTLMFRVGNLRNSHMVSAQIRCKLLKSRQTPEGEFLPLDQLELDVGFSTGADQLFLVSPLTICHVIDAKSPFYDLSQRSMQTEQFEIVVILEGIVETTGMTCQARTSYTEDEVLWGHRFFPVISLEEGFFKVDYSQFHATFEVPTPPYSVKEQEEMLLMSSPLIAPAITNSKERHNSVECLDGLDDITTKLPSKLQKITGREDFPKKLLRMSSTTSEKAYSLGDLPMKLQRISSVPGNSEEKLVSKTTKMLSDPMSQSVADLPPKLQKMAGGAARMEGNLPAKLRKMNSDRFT
T1 sequence (P48544 1-419): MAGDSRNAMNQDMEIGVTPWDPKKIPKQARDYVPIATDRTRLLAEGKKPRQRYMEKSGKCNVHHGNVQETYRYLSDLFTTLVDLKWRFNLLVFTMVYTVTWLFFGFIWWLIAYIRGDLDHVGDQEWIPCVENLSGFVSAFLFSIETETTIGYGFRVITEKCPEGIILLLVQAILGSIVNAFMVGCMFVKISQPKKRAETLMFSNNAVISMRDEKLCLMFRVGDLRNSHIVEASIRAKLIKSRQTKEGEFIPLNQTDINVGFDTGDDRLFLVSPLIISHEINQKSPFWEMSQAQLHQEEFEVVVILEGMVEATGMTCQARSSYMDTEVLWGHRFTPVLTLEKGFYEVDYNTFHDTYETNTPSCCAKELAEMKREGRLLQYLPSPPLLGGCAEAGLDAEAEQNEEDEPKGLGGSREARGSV
Source text: (§1) By co-expressing with […] subunits of G protein, a whole cell current was able to be directly measured via the activated KACh channel.
The coding sequence of human KCNJ3 WT was obtained by amplifying a human KCNJ3 cDNA clone (commercially available from Invitrogen) by PCR, and subcloning it into a pCS2+ vector (commercially available from Addgene). The c.247A>C mutation providingKCNJ3 N83H was introduced by site-directed mutagenesis through PCR. Similarly, the human KCNJ5 coding sequence was obtained by amplifying a human KCNJ5 cDNA clone (commercially available from Invitrogen) by PCR and subcloning it into a pCS2+ vector. The cRNAs of KCNJ3 WT, KCNJ3 N83H and KCNJ5 were synthesized from linearized cDNA using an mMESSAGE mMACHINE kit (commercially available from Life Technologies) vitro transcription. cRNA of KCNJ3 N83H or KCNJ3 WT and cRNA of wild type KCNJ5 were injected into Xenopus laevis oocytes together with cRNA of β and γ subunits of G protein, and incubated in an ND96 solution at 18° C. for 48 to 96 hours.
For the extracellular fluid, the pH of a test bath solution containing 40 mM potassium chloride, 50 mM sodium chloride, 3 mM magnesium chloride M, 0.15 mM niflumic acid, and 5 mMHEPES was adjusted to 7.4 with potassium hydroxide.
(§2) The whole cell current via the expressed KACh channel was measured by a two-electrode voltage clamp method using a GeneClamp 500 amplifier (commercially available from Molecular Devices). The compound (II) dissolved in DMSO, and a perfusate was prepared so that the final concentration was 0.001, 0.01, 0.03, 0.1, 1, and 10 μM. The perfusate containing the compound (II) with a low concentration was added when the amount of current was almost steady, and the amount of current was then recorded while replacing it with a perfusate with a high concentration in the same manner. When the recording was ended, Ba^2+ (3 mM) was added, and the intrinsic leak current was measured. The measured data was analyzed using Clampfit 10.2 (commercially available from Molecular Devices). The IC50 value was calculated using GraphPad Prism version 5.00 (commercially available from GraphPad Software).

KCNJ3 WT zebrafish = assay: transgenic zebrafish model, heart rate analysis (KCNJ3 WT); format: in vivo, zebrafish (Danio rerio); conditions: 100 nM, after 1 hour
Procedure: (§3) As a comparative example, zebrafish for KCNJ3 WT expression was also prepared in the same manner.
Transgenic zebrafish was prepared by a transposon transfer system using transposon Tol2. Since the cardiac KACh channel was expressed in the sinoatrial node, atrioventricular node, and atrial muscle, a gene construct in which three genes of mCherry were linked with a 2A peptide was prepared so that human KCNJ3 WT or N83H and human KCNJ5, and additionally gene introduction thereof were able to be determined under a fluorescence microscope under the control of the atrial myosin heavy chain (amhc) promoter, which expressed a target gene in zebrafish in an atrial-specific manner (FIG. 3). […] When the adult fish prepared in this manner were crossed with wild type zebrafish, fish whose germline transmission was confirmed by generating fry positive for mCherry in the atrium under a fluorescence microscope were used as an F0 founder. When this F0 founder was crossed with wild type zebrafish hspGFF3A, which expressed GFP in both the ventricle and the atrium (Proceedings of the National Academy of Sciences of the United States of America. 2008; 105:1255-1260.), the heart rate and the heart pulsation rhythm were analyzed using 2 day old F1 transgenic zebrafish fry which expressed GFP in the ventricle and GFP and mCherry in the atrium (FIG. 4). […]

[1] = system: KCNJ3 N83H mutant zebrafish; assay: transgenic zebrafish model, heart rate and pulsation rhythm analysis (KCNJ3 N83H); format: in vivo, zebrafish (Danio rerio); conditions: for effect on heart rate and bradyarrhythmia: 100 nM in 0.03% sea salt aqueous solution, after 1 hour, 2 day old fry; for effect on sinus arrest / atrioventricular block caused by the N83H mutation: 100 nM, 1 hour after application
Procedure: as §3
Transgenic zebrafish was prepared by a transposon transfer system using transposon Tol2. Since the cardiac KACh channel was expressed in the sinoatrial node, atrioventricular node, and atrial muscle, a gene construct in which three genes of mCherry were linked with a 2A peptide was prepared so that human KCNJ3 WT or N83H and human KCNJ5, and additionally gene introduction thereof were able to be determined under a fluorescence microscope under the control of the atrial myosin heavy chain (amhc) promoter, which expressed a target gene in zebrafish in an atrial-specific manner (FIG. 3). Next, a small amount of mRNA of the transposase encoded by Tol2 gene and this construct were simultaneously injected into the fertilized egg. When the adult fish prepared in this manner were crossed with wild type zebrafish, fish whose germline transmission was confirmed by generating fry positive for mCherry in the atrium under a fluorescence microscope were used as an F0 founder. When this F0 founder was crossed with wild type zebrafish hspGFF3A, which expressed GFP in both the ventricle and the atrium (Proceedings of the National Academy of Sciences of the United States of America. 2008; 105:1255-1260.), the heart rate and the heart pulsation rhythm were analyzed using 2 day old F1 transgenic zebrafish fry which expressed GFP in the ventricle and GFP and mCherry in the atrium (FIG. 4). Specifically, zebrafish fry was fixed on a glass bottom dish with a diameter of 35 mm with a 0.5% low-melting-point agarose gel, and the fry heart in a 0.03% sea salt aqueous solution was observed under a fluorescence microscope. Based on the video of the heart beat acquired by the camera attached to the fluorescence microscope, detailed analysis of the heart rate and pulsation rhythm was performed using original M mode analysis software (The Journal of clinical investigation. 2007, 117:2812-2824.). The heart rate was measured by the pulsation of the sinus venosus part including the sinus node. Since the expression level of mCherry in the atrium was not different between KCNJ3 WT zebrafish and KCNJ3 N83H mutant zebrafish, the expression level of the KACh channel gene was considered to be the same in both cases. In the KCNJ3 N83H mutant zebrafish, significant atrial enlargement and a bradyarrhythmia phenotype similar to human cases (sinus arrest, sinus bradycardia, sinoatrial block, atrioventricular block) were observed (FIG. 5). Next, the 0.03% sea salt aqueous solution was replaced with a 0.03% sea salt aqueous solution containing the 100 nM compound (II), and the heart beat after 1 hour was analyzed in the same manner.

KCNJ3 WT KACh channel [2] = target: T2, KCNJ3 WT KACh channel (Homo sapiens, UniProt P48544+P48549); assay: two-electrode voltage clamp, KACh channel expressed in Xenopus laevis oocytes (wild type); format: cell-based
T2 construct: expressed in transfected cells; host or cells: Xenopus laevis oocytes (cRNA injection)
T2 sequence (P48549 1-501): T1 sequence (P48549 1-501 N83H) with H83N
T2 sequence (P48544 1-419): T1 sequence (P48544 1-419)
Source text: as §1
The coding sequence of human KCNJ3 WT was obtained by amplifying a human KCNJ3 cDNA clone (commercially available from Invitrogen) by PCR, and subcloning it into a pCS2+ vector (commercially available from Addgene). The c.247A>C mutation providingKCNJ3 N83H was introduced by site-directed mutagenesis through PCR. Similarly, the human KCNJ5 coding sequence was obtained by amplifying a human KCNJ5 cDNA clone (commercially available from Invitrogen) by PCR and subcloning it into a pCS2+ vector. […]
as §2, with “The compound (II) dissolved in DMSO, and a perfusate was prepared so that the final concentration was 0.001, 0.01, 0.03, 0.1, 1, and 10 μM.” left out

KCNJ3 WT KACh channel [3] = target: T2, KCNJ3 WT KACh channel; conditions: literature (Jin W, Lu Z. Biochemistry 1999); cited from earlier work
[4] = target: T3, KCNJ5 WT/W101C KACh channel (Homo sapiens, UniProt P48544+P48549, W101C); assay: two-electrode voltage clamp, W101C heterozygous mutant KACh channel in Xenopus laevis oocytes; format: cell-based; conditions: 0.01, 0.1 and 1 μM
T3 construct: expressed in transfected cells; host or cells: Xenopus laevis oocytes (cRNA injection)
T3 sequence (P48544 1-419 W101C): T1 sequence (P48544 1-419) with W101C
T3 sequence (P48544 1-419): T1 sequence (P48544 1-419)
T3 sequence (P48549 1-501): T1 sequence (P48549 1-501 N83H) with H83N
Procedure: In Xenopus laevis oocytes, in order to imitate autosomal dominant inheritance heterozygous, equimolar amounts of cRNAs of wild type KCNJ5 (KCNJ5 WT) and KCNJ5 W101C were injected together with cRNA of wild type KCNJ3 (KCNJ3 WT), the W101C heterozygous mutant KACh channel was expressed, electrodes were inserted, and the channel activity was confirmed by a two-electrode voltage clamp method.
The above human KCNJ5 cDNA clone (commercially available from Invitrogen) was amplified by PCR and subcloned it into a pCS2+ vector (commercially available from Addgene) to prepare a template, and the c.303G>C mutation providing KCNJ5 W101C was introduced by site-directed mutagenesis through PCR. […]
The whole cell current via the expressed KACh channel was measured by a two-electrode voltage clamp method using a GeneClamp 500 amplifier (commercially available from Molecular Devices). […] The perfusate containing the compound (I) with a low concentration was added when the current amplitude was almost steady, and the current amplitude was then recorded while replacing it with a perfusate with a high concentration in the same manner. When the recording was ended, Ba^2+ (3 mM) was added, and the intrinsic leak current was measured.

Molecule	IC50 (KCNJ3 N83H KACh channel; N83H mutant, n=14, p<0.01 vs wild type, read-out: IC50 value, inhibition of whole cell current) [nM]	inhibition of the N83H mutant compared with the WT KACh channel (KCNJ3 N83H KACh channel)	inhibitory effect on the KCNJ3 N83H KACh channel (KCNJ3 N83H KACh channel)	effect on heart rate (KCNJ3 WT zebrafish)	effect on heart rate and bradyarrhythmia [1]	IC50 (KCNJ3 WT KACh channel [2]; wild type, n=13, read-out: IC50 value, inhibition of whole cell current) [nM]	inhibitory action on the KCNJ3 WT KACh channel (KCNJ3 WT KACh channel [3])	effect on sinus arrest / atrioventricular block caused by the N83H mutation [1]	inhibitory effect on the KCNJ5 WT/W101C KACh channel [4]	inhibitory effect on the KCNJ3 WT KACh channel (KCNJ3 WT KACh channel [2]; two-electrode voltage clamp)
CC1(C)Oc2cc([N+](=O)[O-])c(N)cc2[C@H](NCCc2ccccc2)[C@H]1O [compound (II), (3R,4S)-6-amino-3,4-di hydro-2,2-dimethyl-7-nitro-4-(2-phenethylamino)-2H-1-benzopyran-3-ol]	50 ± 12	higher affinity for the mutant KACh channel	concentration-dependent inhibitory effect	appropriate increase in the heart rate without causing excess tachycardia	increasing the heart rate and improving bradyarrhythmia	230 ± 60				
Tertiapin-Q [reference compound]							inhibitory action	did not improve sinus arrest		
Cc1cc(CO)nc2cc3c(cc12)OC(C)(C)[C@H](O)[C@H]3NCCc1ccccc1 [compound (I), (3R4S)-7-hydroxymethyl-2,2,9-trimethyl-4-(phenethylamino)-3,4-dihydro-2H-pyra no[2,3-g]quinoline-3-ol]		stronger on N83H than WT	exhibited the inhibitory effect		increasing the heart rate and improving bradyarrhythmia			improved the sinus arrest and atrioventricular block	concentration-dependent inhibitory effect	exhibited the inhibitory effect
